The source of these data is US20260365670A1, “EGFR INHIBITORS AND USES THEREOF” (DIZAL (JIANGSU) PHARMACEUTICAL CO., LTD., priority 2022, published 2026).

The structures appear in SMILES notation. Where two headings read alike, the source gives them in different places.

Assay type in all cases: cell-based
For experiment [1], the system named is Ba/F3 cells expressing EGFR mutations. The experiment in a line: Cell proliferation assay, Ba/F3 cells expressing EGFR mutations (CellTiter-Glo, 72 hours). The note with it: CellTiter-Glo. The method, boiled down:
(§1)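 Luminescent viable-cell counts were taken on a day 0 plate at dosing and again at endpoint. Proliferation was calculated as (sample − G0)/(DMSO − G0). Seeding was 5000 Ba/F3 or 500 PC-9 cells per well in RPMI1640, followed by overnight attachment and serial compound dilutions. The GI50 was fitted.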

The subject of experiment [2] is PC-9. Description: Cell proliferation assay, PC-9 cells (CellTiter-Glo, 72 hours). The note with it: PC9 cells, CellTiter-Glo, read-out: PC9 GI50. The method, boiled down: as §1
For experiment [3], the system named is A-431. Description: Cell proliferation GI50, A-431 cells (Table 6). The protocol:
[Worded in the source for another cell line; this cell line is reported under the same test.] Ba/F3 cells expressing EGFR mutations were seeded in 384-well plates at 5000 cells/well in RPMI1640 medium containing […]. PC-9 at 500 cells/well was seeded into 384-well plates in RPMI1640 medium with 10% FBS. After overnight incubation, the assay plates were dosed with compounds at a series of concentrations. Alongside dosing the assay plates, the day 0 plate was processed using CellTiter-Glo® Luminescent Cell Viability Assay (Promega) to measure the number of viable cells (G0). The assay plates were further incubated for 72 hours and the number of viable cells (G3) was measured. The percentage of proliferation was calculated as: […]=100×(G3 value of sample well−G0 value)/(G3 value of DMSO control−G0 value). The concentration of compound producing 50% proliferation inhibition (GI50) was further calculated in best-fit curves using XLFit software. N/A=not available.

Where [4] appears, read: BaF3 cells, EGFR DEL19-C797S, read-out: DEL19-C797S/BaF3 GI50.
The mark [5] stands for this setting: BaF3 cells, EGFR DEL19-T790-C797S, read-out: DEL19-T790-C797S/BaF3 GI50.
Where [6] appears, read: BaF3 cells, EGFR L858R, read-out: L858R/BaF3 GI50.
Where [7] appears, read: BaF3 cells, EGFR L858R-C797S, read-out: L858R-C797S/BaF3 GI50.
[8] abbreviates: BaF3 cells, EGFR L858R-T790-C797S, read-out: L858R-T790-C797S/BaF3 GI50.
The mark [9] stands for this setting: BaF3 cells, EGFR L858R-T790M, read-out: L858R-T790M/BaF3 GI50.
Where [10] appears, read: EGFR DEL19-T790M, read-out: DEL19-T790M GI50.
The mark [11] stands for this setting: Mus musculus, BaF3, 72 h, BaF3 cells, EGFR DEL19-C797S, read-out: DEL19-C797S/BaF3 GI50.
Where [12] appears, read: Mus musculus, BaF3, 72 h, BaF3 cells, EGFR DEL19-T790-C797S, read-out: DEL19-T790-C797S/BaF3 GI50.
Where [13] appears, read: Mus musculus, BaF3, 72 h, BaF3 cells, EGFR L858R, read-out: L858R/BaF3 GI50.
The mark [14] stands for this setting: Mus musculus, BaF3, 72 h, BaF3 cells, EGFR L858R-C797S, read-out: L858R-C797S/BaF3 GI50.
[15] abbreviates: Mus musculus, BaF3, 72 h, BaF3 cells, EGFR L858R-T790-C797S, read-out: L858R-T790-C797S/BaF3 GI50.
Where [16] appears, read: Mus musculus, BaF3, 72 h, BaF3 cells, EGFR L858R-T790M, read-out: L858R-T790M/BaF3 GI50.
Where [17] appears, read: Mus musculus, BaF3, 72 h, EGFR DEL19-T790M, read-out: DEL19-T790M GI50.
Setting [18] is: Homo sapiens, A-431, A-431 cells.

On to `Cn1ncc2c1OCCN1CC3CCC(C3)(C1)n1c(nc3ccc(N4CCC(N5CC(F)C5)C4)cc31)NC(=O)c1cc-2c(=O)n(C)c1` (single isomer, unassigned) [Example A94A2, 5-[3-(3-Fluoroazetidin-1-yl)pyrrolidin-1-yl]-15,21-dimethyl-23-oxa-2,9,11,15,20,21,26-heptaazaheptacyclo[24.4.1.1^{1,28}.1^{13,17}.0^{2,10}.0^{3,8}.0^{18,22}]tritriaconta-3,5,7,9,13,17(33),18(22),19-octaene-12,16-dione], for which the GI50 is 1090 nM in experiment [1] (setting [4]); 3940 nM in experiment [1] (setting [5]); 715 nM in experiment [1] (setting [6]); 1480 nM in experiment [1] (setting [7]); 634 nM in experiment [1] (setting [8]); 2710 nM in experiment [1] (setting [9]). Further, the GI50 in experiment [1] (setting [10]) was 2100 nM; in experiment [2] it was 1940 nM; in experiment [3] (A-431 cells), 1800 nM.
For the compound `CN1CCN(C2CCN(c3ccc4nc5n(c4c3)C34CCC(CN(CCOc6c(cnn6C)-c6cc(cn(C)c6=O)C(=O)N5)C3)C4)C2)CC1` (single isomer, unassigned) [Example A80B, 15,21-Dimethyl-5-[3-(4-methylpiperazin-1-yl)pyrrolidin-1-yl]-23-oxa-2,9,11,15,20,21,26-heptaazaheptacyclo[24.4.1.1^{1,28}.1^{13,17}.0^{2,10}.0^{3,8}.0^{18,22}]tritriaconta-3,5,7,9,13,17(33),18(22),19-octaene-12,16-dione], the GI50 in experiment [1] (setting [4]) amounted to 0.69 nM; in experiment [1] (setting [5]), 1.3 nM; in experiment [1] (setting [6]) it was 0.69 nM; in experiment [1] (setting [7]), 0.8 nM; in experiment [1] (setting [8]), 2.5 nM; in experiment [1] (setting [9]), 2.7 nM. For the same compound, the GI50 in experiment [1] (setting [10]) was 1.2 nM; in experiment [2], 3.3 nM; in experiment [3] (A-431 cells), 483 nM.
Regarding `CN(C)CCN(C)c1ccc2nc3n(c2c1)CCN(CC(F)F)CCOc1c(cnn1C)-c1cc(cn(C)c1=O)C(=O)N3` [Example A4, 10-(2,2-Difluoroethyl)-16-{[2-(dimethylamino)ethyl](methyl)amino}-5,26-dimethyl-7-oxa-4,5,10,13,20,22,26-heptaazapentacyclo[22.3.1.0^{2,6}.0^{13,21}.0^{14,19}]octacosa-1(28),2(6),3,14,16,18,20,24-octaene-23,27-dione], the GI50 in experiment [1] (setting [11]) is 77 nM; in experiment [1] (setting [12]), 811 nM; in experiment [1] (setting [13]), 56 nM; in experiment [1] (setting [14]), 63 nM; in experiment [1] (setting [15]), 76 nM; in experiment [1] (setting [16]), 585 nM. Also, the GI50 in experiment [1] (setting [17]) stood at 788 nM; in experiment [2] (Homo sapiens, PC-9, 72 h), 183 nM; in experiment [3] (setting [18]), 2540 nM.
For the compound `C[C@@H]1CCCOc2c(cnn2C)-c2cc(cn(C)c2=O)C(=O)Nc2nc3ccc(N4CC5CN(C)CC5C4)cc3n2C1` (stereo partly drawn) [Example A30], the GI50 in experiment [1] (setting [11]) came out at 2.3 nM; in experiment [1] (setting [12]), 3.6 nM; in experiment [1] (setting [13]), 13 nM; in experiment [1] (setting [14]), 11 nM; in experiment [1] (setting [15]), 13 nM; in experiment [1] (setting [16]), 24 nM. Further, the GI50 in experiment [1] (setting [17]) came to 15 nM; in experiment [2] (Homo sapiens, PC-9, 72 h), 17 nM; in experiment [3] (setting [18]), 719 nM.
As for `CN(C)C1CN(c2ccc3nc4n(c3c2)C23CCC(CN(CCOc5c(cnn5C)-c5cc(cn(C)c5=O)C(=O)N4)C2)C3)C1` (single isomer, unassigned) [Example A65A], the GI50 came to 209 nM in experiment [1] (setting [4]); 452 nM in experiment [1] (setting [5]); 945 nM in experiment [1] (setting [6]); 561 nM in experiment [1] (setting [7]); 656 nM in experiment [1] (setting [8]); 1970 nM in experiment [1] (setting [9]). For the same compound, the GI50 is 652 nM in experiment [1] (setting [10]), 710 nM in experiment [2] and 2200 nM in experiment [3] (A-431 cells).
For the compound `Cn1ncc2c1OCCN1CCC(C)(C1)n1c(nc3ccc(N4CCOCC4)cc31)NC(=O)c1cc-2c(=O)n(C)c1` (stereo not drawn) [Example A11, 5,13,27-trimethyl-17-(morpholin-4-yl)-7-oxa-4,5,10,14,21,23,27-heptaazahexacyclo[23.3.1.1^{10,13}.0^{2,6}.0^{14,22}.0^{15,20}]triaconta-1(29),2(6),3,15,17,19,21,25-octaene-24,28-dione], the GI50 came to 666 nM in experiment [1] (setting [11]); 1750 nM in experiment [1] (setting [12]); 2690 nM in experiment [1] (setting [13]); 2250 nM in experiment [1] (setting [14]); 2150 nM in experiment [1] (setting [15]); 1720 nM in experiment [1] (setting [16]). Further, the GI50 in experiment [1] (setting [17]) is 1790 nM; in experiment [2] (Homo sapiens, PC-9, 72 h) it was 903 nM; in experiment [3] (setting [18]) it was 2610 nM.
On to `Cn1ncc2c1OCCN1CC3CCC(C3)(C1)n1c(nc3ccc(N4CCOCC4)cc31)NC(=O)c1cc-2c(=O)n(C)c1` (single isomer, unassigned) [Example A62A, 15,21-Dimethyl-5-(morpholin-4-yl)-23-oxa-2,9,11,15,20,21,26-heptaazaheptacyclo[24.4.1.1^{1,28}.1^{13,17}.0^{2,10}.0^{3,8}.0^{18,22}]tritriaconta-3,5,7,9,13,17(33),18(22),19-octaene-12,16-dione], for which the GI50 in experiment [1] (setting [4]) was determined as 393 nM; in experiment [1] (setting [5]), 1350 nM; in experiment [1] (setting [6]) it was 2150 nM; in experiment [1] (setting [7]), 1200 nM; in experiment [1] (setting [8]), 2380 nM; in experiment [1] (setting [9]), 1050 nM. For the same compound, the GI50 was determined as 1400 nM in experiment [1] (setting [10]), 1320 nM in experiment [2] and 7120 nM in experiment [3] (A-431 cells).
On to `C[C@@H]1CCCOc2c(cnn2C)-c2cc(cn(C)c2=O)C(=O)Nc2nc3ccc(N4CCC5(CCN(C)C5)C4)cc3n2C1` (stereo partly drawn) [Example A34], for which the GI50 in experiment [1] (setting [11]) was 1.1 nM; in experiment [1] (setting [12]), 1.3 nM; in experiment [1] (setting [13]), 4.6 nM; in experiment [1] (setting [14]), 4.2 nM; in experiment [1] (setting [15]), 8.9 nM; in experiment [1] (setting [16]), 9.8 nM. Also, the GI50 in experiment [1] (setting [17]) is 5 nM; in experiment [2] (Homo sapiens, PC-9, 72 h), 9.1 nM; in experiment [3] (setting [18]) it was 587 nM.
With `Cn1ncc2c1OCCN1CC3CCC(C3)(C1)n1c(nc3ccc(N4CCC(N5CC(F)C5)C4)cc31)NC(=O)c1cc-2c(=O)n(C)c1` (single isomer, unassigned) [Example A94A1, 5-[3-(3-Fluoroazetidin-1-yl)pyrrolidin-1-yl]-15,21-dimethyl-23-oxa-2,9,11,15,20,21,26-heptaazaheptacyclo[24.4.1.1^{1,28}.1^{13,17}.0^{2,10}.0^{3,8}.0^{18,22}]tritriaconta-3,5,7,9,13,17(33),18(22),19-octaene-12,16-dione], the GI50 in experiment [1] (setting [4]) worked out at 936 nM; in experiment [1] (setting [5]), 2960 nM; in experiment [1] (setting [6]), 754 nM; in experiment [1] (setting [7]) it was 1800 nM; in experiment [1] (setting [8]) it was 882 nM; in experiment [1] (setting [9]) it was 2650 nM. In addition, the figures for the GI50 in experiment [1] (setting [10]), in experiment [2] and in experiment [3] (A-431 cells) were 2030 nM, 2330 nM and 3540 nM, respectively.
As for `C[C@@H]1CCCOc2c(cnn2C)-c2cc(cn(C)c2=O)C(=O)Nc2nc3ccc(N4CC(N5CCOCC5)C4)cc3n2C1` [Example A45], the GI50 in experiment [1] (setting [11]) turned out to be 5.1 nM; in experiment [1] (setting [12]), 16 nM; in experiment [1] (setting [13]), 8.6 nM; in experiment [1] (setting [14]), 14 nM; in experiment [1] (setting [15]) it was 9.3 nM; in experiment [1] (setting [16]), 29 nM. Besides, the GI50 in experiment [1] (setting [17]) was 20 nM; in experiment [2] (Homo sapiens, PC-9, 72 h), 15 nM; in experiment [3] (setting [18]) it was 245 nM.
Regarding `CN1CC2CN(c3ccc4nc5n(c4c3)C34CCC(CN(CCOc6c(cnn6C)-c6cc(cn(C)c6=O)C(=O)N5)C3)C4)CC2C1` (single isomer, unassigned) [Example A68A], the GI50 turned out to be 196 nM in experiment [1] (setting [4]); 409 nM in experiment [1] (setting [5]); 480 nM in experiment [1] (setting [6]); 402 nM in experiment [1] (setting [7]); 366 nM in experiment [1] (setting [8]); 1120 nM in experiment [1] (setting [9]). Further, the GI50 in experiment [1] (setting [10]) amounted to 543 nM; in experiment [2], 460 nM; in experiment [3] (A-431 cells), 5320 nM.
